Where a SMILES comes first, the peptide text is derived from it. [ ]: non-standard residue; d: D form. pY = N[C@@H](Cc1ccc(OP(=O)(O)O)cc1)C(=O)O
Tests used:
[1] = target: T1, Grb2 (Homo sapiens, UniProt P62993); assay: Affinity for Grb2 measured by fluorescence; assay type: binding; details: 25° C., 50 mM HEPES, 1 mM DTT, pH 7.5, emission 345 nm, excitation 292 nm, read-out: Diss. const. fluo Kd
Description: They are expressed therein as the dissociation constant Kd.

[2] = target: T1, Grb2; assay: ELISA competition test (Grb2/biotin-Aha-PSpYVNVQN displacement); assay type: binding; details: displacement of GST-Grb2 (40 ng/ml) from fixed peptide biotin-Aha-PSpYVNVQN (Shc tyrosine 317)
Procedure: Plates pre-treated with streptavidine (Boehringer) are incubated overnight at 4° C. with 100 μl of a solution of peptide biotin-Aha-PSpYVNVQN (Aha: 6-amino-hexanoic acid) (100 nM solution in TBS buffer Tris 100 mM, NaCl 50 mM, pH 7.5) per well. The non-specific binding is then blocked by incubating for 4 hours with the same buffer containing 3% of skimmed milk ([…]). The products to be tested are distributed among the wells at the desired dilution in the abovementioned buffer containing 3% of skimmed milk and 40 ng/ml of GST-Grb2 (100 μl per well). After one night's incubation, the plates are carefully rinsed 4 times using TBS-milk-0.05% tween 20, then incubated for 2 hours at 37° C., in the presence of 100 μl per well of anti-GST antibody (transduction, dilution 1/500 in TBS-milk-0.05% tween 20). The plates are then carefully rinsed 4 times using TBS-milk-0.05% tween 20, then incubated for 45 minutes at 37° C. in the presence of 100 µl per well of anti-mouse antibody coupled with peroxidase (Amersham, 1/1000 dilution in TBS-milk-0.05% tween 20). The plates are carefully rinsed using TBS-milk-0.05% tween 20, then incubated in the presence of 200 μl per well of TMB developing solution (Interchim), until a sufficient blue coloration has developed. The reaction is then stopped by adding 100 μl of 10% (VN) sulphuric acid per well. The reading is taken at 550 nm. The value read off for each well is then reduced by the control value of an equivalent well with no fixed peptide biotin-Aha-PSpYVNVQN then treated, like its homologue, with fixed peptide. The data is then processed using “Origin 40” software to obtain the 50 inhibitory concentrations.

T1 sequence (P62993 whole entry, species assumed): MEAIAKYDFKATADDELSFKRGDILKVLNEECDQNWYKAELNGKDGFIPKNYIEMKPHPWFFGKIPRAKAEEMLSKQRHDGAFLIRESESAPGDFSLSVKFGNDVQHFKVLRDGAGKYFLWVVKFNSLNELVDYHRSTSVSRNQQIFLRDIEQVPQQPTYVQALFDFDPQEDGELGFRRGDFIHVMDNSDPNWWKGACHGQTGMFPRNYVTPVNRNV

| SMILES | Kd [1] [nM] | IC50 [2] [nM] |
| --- | --- | --- |
| NC(=O)C[C@H](NC(=O)[C@H](Cc1ccc(OP(=O)(O)O)cc1)NC(=O)[C@H](Cc1ccc(OP(=O)(O)O)cc1)NC(=O)OCc1cccc(N)c1)C(N)=O [mAZ-pTyr-pTyr-Asn-NH2, reference compound] | 60 | 235 |
| NC(=O)C[C@H](NC(=O)C1(NC(=O)[C@H](Cc2ccc(OP(=O)(O)O)cc2)NC(=O)OCc2cccc(N)c2)CCCCC1)C(N)=O [mAZ-pTyr-Acac-Asn-NH2, reference compound] | 30 | 120 |
| C[C@@](Cc1ccc(OP(=O)(O)O)cc1)(NC(=O)[C@H](Cc1ccc(OP(=O)(O)O)cc1)NC(=O)OCc1cccc(N)c1)C(=O)N[C@@H](CC(N)=O)C(N)=O [mAZ-pTyr-(αMe)pTyr-Asn-NH2, mAZ-pTyr-(α-Me)pTyr-Asn-NH2] | 3 | 11 |
| C[C@@](Cc1ccc(OP(=O)(O)O)cc1)(NC(=O)[C@H](Cc1ccc(CP(=O)(O)O)cc1)NC(=O)OCc1cccc(N)c1)C(=O)N[C@@H](CC(N)=O)C(N)=O [mAZ-Pmp-(αMe)pTyr-Asn-NH2, mAZ-Pmp-(α-Me) pTyr-Asn-NH2] |  | 42 |
| C[C@@](Cc1ccc(O)cc1)(NC(=O)[C@H](Cc1ccc(OP(=O)(O)O)cc1)NC(=O)OCc1cccc(N)c1)C(=O)N[C@@H](CC(N)=O)C(N)=O [mAZ-pTyr-(αMe)Tyr-Asn-NH2, mAZ-pTyr-(α-Me)Tyr-Asn-NH2, reference compound] | 250 | 1100 |
| C[C@@](Cc1ccc(C(=O)O)cc1)(NC(=O)[C@H](Cc1ccc(OP(=O)(O)O)cc1)NC(=O)OCc1cccc(N)c1)C(=O)N[C@@H](CC(N)=O)C(N)=O [mAZ-pTyr-(αMe)Phe(COOH)-Asn-NH2, mAZ-pTyr-(αMe)Phe(4-CO2H)-Asn-NH2] | 45 | 153 |
| CC(Cc1ccc(C(F)(F)P(=O)(O)O)cc1)(NC(=O)[C@H](Cc1ccc(OP(=O)(O)O)cc1)NC(=O)OCc1cccc(N)c1)C(=O)N[C@@H](CC(N)=O)C(N)=O (stereo partly drawn) [mAZ-pTyr-(αMe)F2Pmp-Asn-NH2, mAZ-pTyr-(D,L)(α-Me)F2Pmp-Asn-NH2] |  | 64 |
| C[C@@](Cc1ccc(CC(=O)O)cc1)(NC(=O)[C@H](Cc1ccc(OP(=O)(O)O)cc1)NC(=O)OCc1cccc(N)c1)C(=O)N[C@@H](CC(N)=O)C(N)=O [mAZ-pTyr-(αMe)Phe(CH2—COOH)-Asn-NH2, mAZ-pTyr-(αMe)Phe(4-CH2CO2H)-Asn-NH2] | 60 | 198 |
| CC(C)[C@H](NC(=O)[C@H](CC(N)=O)NC(=O)[C@@H](NC(=O)[C@H](Cc1ccc(OP(=O)(O)O)cc1)NC(=O)[C@H](CO)NC(=O)[C@@H]1CCCN1)C(C)C)C(=O)N[C@@H](CCC(N)=O)C(=O)N[C@@H](CC(N)=O)C(=O)O [PSpYVNVQN (Shc 317), reference compound] (H-PS[pY]VNVQN-OH) |  | 71 |
| CC(Cc1ccc(CP(=O)(O)O)cc1)(NC(=O)[C@H](Cc1ccc(OP(=O)(O)O)cc1)NC(=O)OCc1cccc(N)c1)C(=O)N[C@@H](CC(N)=O)C(N)=O (stereo partly drawn) [mAZ-pTyr-(αMe)Pmp-Asn-NH2, mAZ-pTyr-(D,L)(αMe)Pmp-Asn-NH2] | 70 | 266 |
| CC(Cc1ccc(P(=O)(O)O)cc1)(NC(=O)[C@H](Cc1ccc(OP(=O)(O)O)cc1)NC(=O)OCc1cccc(N)c1)C(=O)N[C@@H](CC(N)=O)C(N)=O (stereo partly drawn) [mAZ-pTyr-(αMe)Ppp-Asn-NH2 (D or L)] | 4.5 |  |
| NC(=O)C[C@H](NC(=O)[C@H](Cc1ccc(O)cc1)NC(=O)[C@H](Cc1ccc(OP(=O)(O)O)cc1)NC(=O)OCc1cccc(N)c1)C(N)=O [mAZ-pTyr-Tyr-Asn-NH2, reference compound] | 155 | 497 |

Source: patent US20020055463A1, “Pseudopeptide compounds having an inhibiting activity with respect to paths activated by proteins with active tyrosine kinase activity and pharmaceutical compositions containing same” (priority 1998, published 2002)
